# Assay results reported in patent US12122787B2, “Fused pyridone compound, and preparation method therefor and use thereof” (SHANGHAI JEMINCARE PHARMACEUTICALS CO., LTD, priority 2019, dated 2024).
# Like-named read-outs stand apart in the source and are kept apart here.
# What was measured:
# Assay type in all cases: cell-based
# [1] = test system: phosphorylated ERK (Thr202/Tyr204) in NCI-H358 cells expressing mutant RAS(G12C); assay: Inhibition of RAS-mediated signal transduction: phosphorylated ERK ELISA in NCI-H358 cells
# Experimental: The cells were treated with or without the compound of the present disclosure (dimethyl sulfoxide, DMSO), and the final concentration of DMSO was guaranteed to be 0.5%. After 2 hours of treatment, the medium was removed and 4% paraformaldehyde (Beyotime catalog number E672002-0100) was added and left to stand for 20 minutes. Cells were washed with PBS after fixation and incubated with precooled methanol for 10 min to permeabilize the cell membrane.
# The level of phosphorylated ERK was detected using an enzyme linked immunosorbent assay (ELISA) method. […] The plates were washed 5 times with PBS containing 0.05% Tween 20. […] The reaction was stopped by adding 1 mol/L H2SO4, and the OD value was read at 450 nm by EnVision (PerkinElmer).
# The total number of cells per well was detected by Janus Green B staining method. After detecting the level of phosphorylated ERK, the 96-well plate was washed with PBS until colorless, and 0.1% Janus Green B (Abcam catalogue number ab111622) was added to incubate for 10 minutes. After the 96-well plate was washed with double distilled water, 0.1 mol/L HCl was added, then the mixture was shaked and incubated for 10 minutes. The OD value was read at 595 nm by EnVision (PerkinElmer).
# The signal of pERK (Thr202/Tyr204) was normalized by the signal value of Janus Green B, and the inhibition percentage after drug treatment relative to DMSO reference was calculated. The percentage values were fitted by a four-parameter dose-response curve and generated IC50 values.
# [2] = test system: NCI-H358 cells expressing KRAS-G12C; assay: Growth inhibition of tumor cell line expressing KRAS-G12C (Cell Titer Glo), NCI-H358
# Experimental: (§1) The ability of the compounds of the present disclosure to inhibit the growth of cells expressing KRAS-G12C was evaluated by measuring the cell viability and calculating the GI50 values.
# (§2) The tumor cell line NCI-H358 (ATCC catalogue number CRL-5807) expressing KRAS-G12C was cultured in RPMI medium supplemented with 10% fetal bovine serum and penicillin/streptomycin, and the tumor cell line MIA PaCa2 (ATCC CRL-1420) expressing KRAS-G12C was cultured in DMEM medium supplemented with 10% fetal bovine serum, 2.5% horse serum, and penicillin/streptomycin.
# (§3) Cells NCI-H358 and MIA-Paca2 were inoculated into black transparent bottom 384-well plate (PerkinElmer catalogue number 6007460) with cell density of 1000 and 800 respectively, and the cells were allowed to adhere to the wall overnight (8-12 hours). After the cells adhered to the wall, the experimental group was added with the compound of the present disclosure diluted 5 times the concentration of the working solution (final concentration containing 0.1% dimethyl sulfoxide, i.e. DMSO); the control group was added with the same dilution as the experimental group (final concentration containing 0.1% DMSO). After 72 hours, Cell Titer Glo reagent (Promega catalogue number G7572) was used to detect ATP content according to the instruction method to determine the amount of cell proliferation. The brief operation steps were as follows: the cell plate was taken out and kept at normal temperature for equilibrium for 30 minutes; Cell Titer Glo reagent with the same volume as the culture was added; the culture plate was placed on a shaker for shaking and cracking for 2 minutes; the culture plate was left to stand at room temperature for 10 minutes; then the light signal value was read by microplate reader EnVision (PerkinElmer).
# (§4) Data from all experimental groups were used to calculate the respective percent inhibition using the DMSO group, and the GI50 was calculated using the data processing software GraphPad to analyze the inhibition rates produced by the 9 compound dose concentrations diluted at ⅓-fold ratio.
# [3] = test system: MIA PaCa2 cells expressing KRAS-G12C; assay: Growth inhibition of tumor cell line expressing KRAS-G12C (Cell Titer Glo), MIA PaCa2
# Experimental: as §1, §2, §3, §4
# [4] = NCI-H358 cells, 2 hours of treatment, pERK normalized by Janus Green B, read-out: p-ERK IC50 (NCI H358)
# [5] = Homo sapiens, MIA PaCa-2, 72 h, MIA-Paca2, 72 hours
# [6] = Homo sapiens, NCI-H358, 2 h, NCI-H358 cells, 2 hours of treatment, pERK normalized by Janus Green B, read-out: p-ERK IC50 (NCI H358)
"GI50 ([2]; NCI-H358, 72 hours) [nM]","GI50 ([3]; MIA-Paca2, 72 hours) [nM]","GI50 ([2]; Homo sapiens, NCI-H358, 72 h) [nM]","GI50 [3, 5] [nM]",SMILES,"IC50 [1, 4] [µM]","IC50 [1, 6] [µM]",also measured
2,1,–,–,"C=CC(=O)N1C[C@@H]2C(=O)N(CCN(C)C)c3c(c4cc(Cl)c(-c5c(O)cccc5F)c(F)c4n(-c4c(C)ccnc4C(C)C)c3=O)N2C[C@H]1C (single isomer, unassigned) [Compound 26C]",0.002,–,–
3,7,–,–,"C=CC(=O)N1C[C@@H]2C(=O)N(C)c3c(c4cc(Cl)c(-c5c(O)cccc5F)c(F)c4n(-c4c(C)ncnc4C(C)C)c3=O)N2C[C@H]1C (atropisomer, axis not shown) [Compound 49A-1]",0.005,–,–
10,34,–,–,C=CC(=O)N1C[C@@H]2C(=O)N(C)c3c(c4cc(F)c(-c5c(O)cccc5F)c(F)c4n(-c4c(C)ccnc4C(C)C)c3=O)N2C[C@H]1C [Compound 21A-2],0.015,–,–
–,–,152,724,"C=CC(=O)N1C[C@@H]2C(=O)N(CCN(C)C)c3c(c4cc(Cl)c(-c5c(O)cccc5F)c(F)c4n(-c4c(C)ccnc4C(C)C)c3=O)N2C[C@H]1C (atropisomer, axis not shown) [Compound 26A]",–,0.203,–
–,–,62,94,C=CC(=O)N1C[C@@H]2C(=O)N(C)c3c(c4cc(Cl)c(-c5c(F)cccc5OC)c(F)c4n(-c4c(C)ncnc4C(C)C)c3=O)N2C[C@H]1C [Compound 50],–,0.041,–
27,166,–,–,"C=CC(=O)N1C[C@@H]2COc3c(c4cc(F)c(-c5c(O)cccc5F)c(F)c4n(-c4c(C)ccnc4C(C)C)c3=O)N2C[C@H]1C (atropisomer, axis not shown) [Compound 3B-1]",0.026,–,–
–,–,147,152,"C=CC(=O)N1C[C@@H]2C(=O)N(CCN(C)C)c3c(c4cc(Cl)c(-c5c(F)cccc5OC)c(F)c4n(-c4c(C)ccnc4C(C)C)c3=O)N2C[C@H]1C (atropisomer, axis not shown) [Compound 27A]",–,0.087,–
–,–,208,231,C=CC(=O)N1C[C@@H]2C(=O)N(CCN(C)C)c3c(c4cc(Cl)c(-c5c(F)cccc5OC)nc4n(-c4c(C)ccnc4C(C)C)c3=O)N2C[C@H]1C [Compound 30A],–,0.17,–
–,–,442,604,C=CC(=O)N1C[C@@H]2C(=O)N(C)c3c(c4cc(F)c(-c5c(C)ccc6[nH]ncc56)c(F)c4n(-c4c(C)ccnc4C(C)C)c3=O)N2C[C@H]1C [Compound 32A],–,0.274,–
21,66,–,–,C=CC(=O)N1C[C@@H]2COc3c(c4cc(Cl)c(-c5c(O)cccc5F)c(F)c4n(-c4c(C)ccnc4C(C)C)c3=O)N2C[C@H]1C [Compound 18B-1],0.036,–,–
–,–,4,9,C=CC(=O)N1C[C@@H]2C(=O)N(C)c3c(c4cc(Cl)c(-c5c(O)cccc5F)c(F)c4n(-c4c(C)ncnc4C(C)C)c3=O)N2C[C@H]1C [Compound 49A],–,0.004,–
3,14,–,–,C=CC(=O)N1C[C@@H]2C(=O)N(C)c3c(c4cc(Cl)c(-c5c(O)cccc5F)c(F)c4n(-c4c(C)ccnc4C(C)C)c3=O)N2C[C@H]1C [Compound 23A-2],0.003,–,–
68,112,–,–,C=CC(=O)N1CC2C(=O)N(CCN(C)C)c3c(c4cc(F)c(-c5c(O)cccc5F)c(F)c4n(-c4c(C)ccnc4C(C)C)c3=O)N2CC1C (stereo not drawn) [Compound 24B],0.075,–,–
–,–,10,29,C=CC(=O)N1C[C@@H]2C(=O)N(C)c3c(c4cc(Cl)c(-c5c(O)cccc5F)nc4n(-c4c(C)ccnc4C(C)C)c3=O)N2C[C@H]1C [Compound 25A],–,0.014,–
–,–,148,328,"C=CC(=O)N1C[C@@H]2C(=O)N(C)c3c(c4cc(F)c(-c5c(O)cccc5F)nc4n(-c4ccccc4C(C)C)c3=O)N2C[C@H]1C (atropisomer, axis not shown) [Compound 7B]",–,0.098,–

# The next lines start with the molecule.
SMILES,"GI50 ([2]; NCI-H358, 72 hours) [nM]","GI50 ([3]; MIA-Paca2, 72 hours) [nM]","GI50 ([2]; Homo sapiens, NCI-H358, 72 h) [nM]","GI50 [3, 5] [nM]","IC50 [1, 4] [µM]","IC50 [1, 6] [µM]",also measured
"C=CC(=O)N1C[C@@H]2CN(C)c3c(c4cc(F)c(-c5c(O)cccc5F)c(F)c4n(-c4c(C)ccnc4C(C)C)c3=O)N2C[C@H]1C (single isomer, unassigned) [Compound 16A]",–,–,20,211,0.017,–,–
"C=CC(=O)N1C[C@@H]2CN(C)c3c(c4cc(F)c(-c5c(O)cccc5F)c(F)c4n(-c4c(C)ccnc4C(C)C)c3=O)N2C[C@H]1C (atropisomer, axis not shown) [Compound 16A-1]",–,–,12,55,0.011,–,–
C=CC(=O)N1C[C@@H]2C(=O)N(C)c3c(c4cc(Cl)c(-c5c(O)cccc5F)c(F)c4n(-c4c(CC)ccnc4C(C)C)c3=O)N2C[C@H]1C [Compound 53A-1],–,–,2,4,–,0.003,–
C=CC(=O)N1C[C@@H]2COc3c(c4cc(F)c(-c5c(O)cccc5F)nc4n(-c4ccccc4C(C)C)c3=O)N2C[C@H]1C [Compound 2A],–,–,143,1020,–,0.066,–
"C=CC(=O)N1CC2C(=O)Nc3c(c4cc(F)c(-c5c(O)cccc5F)c(F)c4n(-c4c(C)ccnc4C(C)C)c3=O)N2CC1C (single isomer, unassigned) [Compound 22A-2]",42,119,–,–,0.054,–,–
C=CC(=O)N1C[C@@H]2CN(CC(N)=O)c3c(c4cc(F)c(-c5c(O)cccc5F)c(F)c4n(-c4c(C)ccnc4C(C)C)c3=O)N2C[C@H]1C [Compound 44A],–,–,424,1570,–,0.58,–
C=CC(=O)N1C[C@@H]2COc3c(c4cc(Cl)c(-c5c(O)cccc5F)c(F)c4n(-c4c(C)ccnc4C(C)C)c3=O)N2C[C@H]1C [Compound 18A-1],2,10,–,–,0.004,–,–
C=CC(=O)N1C[C@@H]2C(=O)N(C)c3c(c4cc(F)c(-c5c(O)cccc5F)c(F)c4n(-c4c(C(C)C)ncnc4C(C)C)c3=O)N2C[C@H]1C [Compound 20B],413,1600,–,–,0.264,–,–
"C=CC(=O)N1C[C@@H]2COc3c(c4cc(Cl)c(-c5c(O)cccc5F)c(F)c4n(-c4c(C)ccnc4C(C)C)c3=O)N2C[C@H]1C (atropisomer, axis not shown) [Compound 18B]",138,468,–,–,0.151,–,–
C=CC(=O)N1CCN(c2ncnc3c(F)c(-c4c(O)cccc4F)c(Cl)cc23)CC1 [ARS-1620],–,–,–,–,–,–,"IC50 ([1]; Homo sapiens, NCI-H358, 2 h, read-out: p-ERK IC50 (NCI H358, μM)): 0.325 µM; GI50 ([2]; Homo sapiens, NCI-H358, 72 hours): 510 nM; GI50 ([3]; Homo sapiens, MIA PaCa-2, MIA-Paca2, 72 hours): 1210 nM"
"C=CC(=O)N1C[C@@H]2COc3c(c4cc(F)c(-c5c(O)cccc5F)nc4n(-c4c(C)ccnc4C(C)C)c3=O)N2C[C@H]1C (single isomer, unassigned) [Compound 5A]",89,252,–,–,0.061,–,–
C=CC(=O)N1C[C@@H]2CN(CC(=O)OC)c3c(c4cc(F)c(-c5c(O)cccc5F)c(F)c4n(-c4c(C)ccnc4C(C)C)c3=O)N2C[C@H]1C [Compound 38B],–,–,77,535,0.064,–,–
C=CC(=O)N1C[C@@H]2C(=O)Nc3c(c4cc(F)c(-c5c(O)cccc5F)c(F)c4n(-c4c(C)ccnc4C(C)C)c3=O)N2C[C@H]1C [Compound 22A],10,24,–,–,0.016,–,–
C=CC(=O)N1C[C@@H]2C(=O)N(C)c3c(c4cc(Cl)c(-c5c(O)cccc5F)c(F)c4n(-c4c(C)ccnc4C(C)C)c3=O)N2C[C@H]1C [Compound 23A-1],–,–,104,281,–,0.111,–
